Source: US20150087673A1, “METHODS FOR USING AND BIOMARKERS FOR AMPK-ACTIVATING COMPOUNDS” (RIGEL PHARMACEUTICALS, INC., priority 2013, published 2015)

test system: AMPK; assay: AMPK activation assay (enzyme-linked immunosorbent assay); assay type: cell-based
Summary of the method: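 Read-out: immunodetected kinase activation after compound exposure, run with commercial kit reagents.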

EC50, 500 to 1000 nM:
N#Cc1ccc(CN2CCC(NC(=O)c3ccc(C(=O)N4CCN(S(=O)(=O)c5ccccc5)CC4)cn3)CC2)cc1 [Compound 82, N-(1-(4-cyanobenzyl)piperidin-4-yl)-5-(4-(phenylsulfonyl)piperazine-1-carbonyl)picolinamide]
COc1ccc(S(=O)(=O)N2CCN(C(=O)c3ccc(C(=O)NC4CCN(Cc5ccc(C#N)cc5)CC4)nc3)CC2)cc1 [Compound 79, N-(1-(4-cyanobenzyl)piperidin-4-yl)-5-(4-(4-methoxyphenylsulfonyl)piperazine-1-carbonyl)picolinamide]
CC(C)(C)C(=O)N1CCN(C(=O)c2ccc(C(=O)NC3CCN(Cc4ccc(C#N)cc4)CC3)nc2)CC1 [Compound 81, N-(1-(4-cyanobenzyl)piperidin-4-yl)-5-(4-pivaloylpiperazine-1-carbonyl)picolinamide]

EC50, 5000 to 10000 nM:
CN1CCN(c2ccc(C(=O)C3CCN(C(=O)c4ccc(C(=O)NC5CCN(Cc6ccc(OC(F)(F)F)cc6)CC5)cn4)CC3)cc2)CC1 [Compound 244, 6-(4-(4-(4-methylpiperazin-1-yl)benzoyl)piperidine-1-carbonyl)-N-(1-(4-(trifluoromethoxy)benzyl)piperidin-4-yl)nicotinamide]

EC50, 1000 to 5000 nM:
CC(=O)Nc1cccc(OC2CCN(C(=O)c3ccc(C(=O)NC4CCN(Cc5ccc(F)cc5)CC4)cn3)CC2)c1 [Compound 413, 6-(4-(3-acetamidophenoxy)piperidine-1-carbonyl)-N-(1-(4-fluorobenzyl)piperidin-4-yl)nicotinamide]
COc1ccc(C(=O)C2CCN(C(=O)c3ncc(C(=O)NC4CCN(Cc5ccc(C#N)cc5)CC4)cc3CCCNC(=O)OC(C)(C)C)CC2)cc1 [Compound 416, tert-butyl 3-(5-(1-(4-cyanobenzyl)piperidin-4-ylcarbamoyl)-2-(4-(4-methoxybenzoyl)piperidine-1-carbonyl)pyridin-3-yl)propylcarbamate]
CS(=O)(=O)c1ccc(OC2CCN(C(=O)c3ccc(C(=O)NC4CCN(Cc5cccc(OC(F)(F)F)c5)CC4)cn3)CC2)cc1 [Compound 239, 6-(4-(4-(methylsulfonyl)phenoxy)piperidine-1-carbonyl)-N-(1-(3-(trifluoromethoxy)benzyl)piperidin-4-yl)nicotinamide]
CCOC(=O)C(c1ccccc1)N1CCC(NC(=O)c2ccc(C(=O)N3CCN(Cc4ccc(F)cc4)CC3)cn2)CC1 (stereo not shown) [Compound 98, ethyl 2-(4-(5-(4-(4-fluorobenzyl)piperazine-1-carbonyl)picolinamido)piperidin-1-yl)-2-phenylacetate]

EC50, > 10000 nM:
COc1ccc(C(=O)C2CCN(C(=O)c3ccc(C(=O)NC4CCN(Cc5ccc(NC(=O)CCOCCOCCOCCNC(=O)CCCC[C@@H]6SC[C@@H]7NC(=O)N[C@@H]76)cc5)CC4)nc3)CC2)cc1 [Compound 403, 5-(4-(4-methoxybenzoyl)piperidine-1-carbonyl)-N-(1-(4-(14-oxo-18-((3aS,4S,6aR)-2-oxohexahydro-1H-thieno[3,4-d]imidazol-4-yl)-4,7,10-trioxa-13-azaoctadecanamido)benzyl)piperidin-4-yl)picolinamide]

EC50, < 500 nM:
COc1ccc(CN2CCC(NC(=O)c3ccc(C(=O)N4CCC(C(=O)c5ccc(N6CCCC6)cc5)CC4)nc3)CC2)cc1F [Compound 443, N-(1-(3-fluoro-4-methoxybenzyl)piperidin-4-yl)-6-(4-(4-(pyrrolidin-1-yl)benzoyl)piperidine-1-carbonyl)nicotinamide]
N#Cc1ccc(CN2CCC(NC(=O)c3cnc(C(=O)N4CCC(Oc5ccc(C(F)(F)F)cc5)CC4)cn3)CC2)cc1 [Compound 212, N-(1-(4-cyanobenzyl)piperidin-4-yl)-5-(4-(4-(trifluoromethyl)phenoxy)piperidine-1-carbonyl)pyrazine-2-carboxamide]
N#Cc1ccc(OC2CCN(C(=O)c3ccc(C(=O)NC4CCN(Cc5cc(F)cc(F)c5)CC4)cn3)CC2)cc1 [Compound 322, 6-(4-(4-cyanophenoxy)piperidine-1-carbonyl)-N-(1-(3,5-difluorobenzyl)piperidin-4-yl)nicotinamide]
O=C(NC1CCN(Cc2ccc(F)cc2)CC1)c1ccc(C(=O)N2CCC(Oc3ccc(C(F)(F)F)cc3)CC2)cn1 [Compound 179, N-(1-(4-fluorobenzyl)piperidin-4-yl)-5-(4-(4-(trifluoromethyl)phenoxy)piperidine-1-carbonyl)picolinamide]
N#Cc1ccc(CN2CCC(NC(=O)c3ccc(N4CCC(Oc5ccc(C#N)cc5)CC4)nn3)CC2)cc1 [Compound 351, N-(1-(4-cyanobenzyl)piperidin-4-yl)-6-(4-(4-cyanophenoxy)piperidin-1-yl) pyridazine-3-carboxamide]
N#Cc1ccc(CN2CCC(NC(=O)c3ccc(C(=O)N4CC[C@@H](Oc5ccc(F)cc5)C4)cn3)CC2)cc1 [Compound 278, (R)-N-(1-(4-cyanobenzyl)piperidin-4-yl)-5-(3-(4-fluorophenoxy)pyrrolidine-1-carbonyl)picolinamide]
COc1ccc(C(=O)C2CCN(C(=O)c3ccc(C(=O)N[C@H]4CC[C@@H](Oc5ccc(F)cc5)CC4)cn3)CC2)cc1 [Compound 316, N-((cis)-4-(4-fluorophenoxy)cyclohexyl)-6-(4-(4-methoxybenzoyl)piperidine-1-carbonyl)nicotinamide]
N#Cc1ccc(OC2CCN(C(=O)c3ccc(C(=O)NC4CCN(Cc5ccc(F)cc5)CC4)cn3)CC2)cc1 [Compound 320, 6-(4-(4-cyanophenoxy)piperidine-1-carbonyl)-N-(1-(4-fluorobenzyl)piperidin-4-yl)nicotinamide]
COc1ccc(CN2CCC(NC(=O)c3ccc(C(=O)N4CCC(Oc5ccc(NC(C)=O)cc5)CC4)nc3)CC2)cc1 [Compound 407, 6-(4-(4-acetamidophenoxy)piperidine-1-carbonyl)-N-(1-(4-methoxybenzyl)piperidin-4-yl) nicotinamide]
N#Cc1ccc(CN2CCC(NC(=O)c3ccc(C(=O)N4CCC(S(=O)(=O)c5ccc(F)cc5)CC4)cn3)CC2)cc1 [Compound 262, N-(1-(4-cyanobenzyl)piperidin-4-yl)-5-(4-(4-fluorophenylsulfonyl)piperidine-1-carbonyl)picolinamide]
N#Cc1ccc(CN2CCC(NC(=O)c3cnc(C(=O)N4CCC(C(=O)c5ccc(N6CCCC6)cc5)CC4)cn3)CC2)cc1 [Compound 219, N-(1-(4-cyanobenzyl)piperidin-4-yl)-5-(4-(4-(pyrrolidin-1-yl)benzoyl)piperidine-1-carbonyl)pyrazine-2-carboxamide]
CC(=O)c1ccc(Oc2ccc(NC(=O)c3ccc(C(=O)N4CCN(Cc5ccc(F)cc5)CC4)nc3)cn2)cc1 [Compound 477, N-(6-(4-acetylphenoxy)pyridin-3-yl)-6-(4-(4-fluorobenzyl)piperazine-1-carbonyl)nicotinamide]
N#Cc1ccc(CN2CCc3ccc(NC(=O)c4ccc(C(=O)N5CCN(Cc6ccc(F)cc6)CC5)cn4)cc3C2)cc1 [Compound 132, N-(2-(4-cyanobenzyl)-1,2,3,4-tetrahydroisoquinolin-7-yl)-5-(4-(4-fluorobenzyl)piperazine-1-carbonyl)picolinamide]
N#Cc1ccc(CN2CC[C@@H](NC(=O)c3ccc(C(=O)N4CCC(Oc5ccc(S(=O)(=O)C(F)(F)F)cc5)CC4)nc3)[C@H](F)C2)cc1 (relative stereo) [Compound 451, N-((trans)-1-(4-cyanobenzyl)-3-fluoropiperidin-4-yl)-6-(4-(4-(trifluoromethylsulfonyl)phenoxy)piperidine-1-carbonyl)nicotinamide]
N#Cc1ccc(CC2CCN(C(=O)c3ccc(C(=O)NC4CCN(Cc5ccc(C#N)cc5)CC4)nc3)CC2)cc1 [Compound 128, N-(1-(4-cyanobenzyl)piperidin-4-yl)-5-(4-(4-cyanobenzyl)piperidine-1-carbonyl)picolinamide]
N#Cc1ccc(CN2CCC(NC(=O)c3ccc(C(=O)N4CCC(F)(C(=O)c5ccc(F)cc5)CC4)cn3)CC2)cc1 [Compound 68, N-(1-(4-cyanobenzyl)piperidin-4-yl)-5-(4-(4-fluoro-4-fluorobenzoyl)piperidine-1-carbonyl)picolinamide]
COc1ccc(N2CCC(Nc3ccc(C(=O)NC4CCN(Cc5ccc(C#N)cc5)CC4)nc3)CC2)cc1 [Compound 275, N-(1-(4-cyanobenzyl)piperidin-4-yl)-5-(1-(4-methoxyphenyl)piperidin-4-ylamino)picolinamide]
CS(=O)(=O)c1ccc(Oc2ccc(NC(=O)c3ccc(C(=O)N4CCC(C(=O)c5ccc(F)cc5F)CC4)nc3)cn2)cc1 [Compound 466, 6-(4-(2,4-difluorobenzoyl)piperidine-1-carbonyl)-N-(6-(4-(methylsulfonyl)phenoxy)pyridin-3-yl)nicotinamide]
O=C(NC1CCN(Cc2ccc(OC(F)(F)F)cc2)CC1)c1ccc(C(=O)N2CCC(S(=O)(=O)c3ccc(F)cc3)CC2)nc1 [Compound 470, 6-(4-(4-fluorophenylsulfonyl)piperidine-1-carbonyl)-N-(1-(4-(trifluoromethoxy)benzyl)piperidin-4-yl)nicotinamide]
N#Cc1ccc(Oc2ccc(NC(=O)c3ccc(C(=O)N4CCN(Cc5ccc(F)cc5)CC4)cn3)cn2)cc1 [Compound 63, 5-(4-(4-fluorobenzyl)piperazine-1-carbonyl)-(6-(4-cyanophenoxy)pyridin-3-yl)picolinamide]
O=C(NC1CCN(Cc2ccc(OC(F)(F)F)cc2)CC1)c1ccc(C(=O)N2CCC(C(=O)c3ccc(N4CCCC4)cc3)CC2)nc1 [Compound 440, 6-(4-(4-(pyrrolidin-1-yl)benzoyl)piperidine-1-carbonyl)-N-(1-(4-(trifluoromethoxy)benzyl)piperidin-4-yl)nicotinamide]
COc1ccc(C(=O)C2CCN(C(=O)c3ccc(C(=O)N[C@@H]4CCN(Cc5ccc(OC(F)(F)F)cc5)C[C@@H]4F)cn3)CC2)cc1 (relative stereo) [Compound 461, N-((cis)-3-fluoro-1-(4-(trifluoromethoxy)benzyl)piperidin-4-yl)-6-(4-(4-methoxybenzoyl)piperidine-1-carbonyl)nicotinamide]
